Assay: solvent given as SMILES
[1] = in c1cc(-n2c3ccccc3c3ccccc32)cc(-n2c3ccccc3c3ccccc32)c1

SMILES: C(=C\c1nc(/C=C/c2ccc(-n3c4ccccc4c4ccccc43)cc2)nc(/C=C/c2ccc(-n3c4ccccc4c4ccccc43)cc2)n1)/c1ccc(-n2c3ccccc3c3ccccc32)cc1
- emission maximum (in C1CCOC1): 500 nm
- emission maximum (in CC#N): 574 nm
- emission maximum (in Cc1ccccc1): 453 nm
- emission maximum (in ClCCl): 526 nm

SMILES: c1ccc(N2N=C(c3ccc4ccc5cccc6ccc3c4c56)CC2c2ccc3ccc4cccc5ccc2c3c45)cc1 (stereo unspecified)
- emission maximum (in ClCCl): 508 nm

SMILES: CSc1sc(C(=O)c2ccccc2)c2nn[nH]c(=O)c12
- emission maximum (in C1CCOC1): 482 nm
- emission maximum (in CC#N): 485 nm
- emission maximum (in CCO): 489 nm
- emission maximum (in CN(C)C=O): 492 nm
- emission maximum (in CO): 495 nm
- emission maximum (in CS(C)=O): 497 nm

SMILES: CC1(C)C(/C=C/C2=C(c3ccc(C(=O)O)cc3)C(=C/C=C3/N(CCCCS(=O)(=O)[O-])c4ccccc4C3(C)C)/CC2)=[N+](CCCCS(=O)(=O)[O-])c2ccccc21
- emission maximum (in CO): 816 nm

SMILES: C[Si]1(c2ccccc2)C(c2ccc3c4ccccc4n(-c4ccccc4)c3c2)=C(c2ccccc2)C(c2ccccc2)=C1c1ccc2c3ccccc3n(-c3ccccc3)c2c1
- emission maximum (in C1CCOC1): 525 nm

SMILES: c1ccc2c(c1)OP1(=NP(Oc3ccc4ccc5cccc6ccc3c4c56)(Oc3ccc4ccc5cccc6ccc3c4c56)=NP(Oc3ccc4ccc5cccc6ccc3c4c56)(Oc3ccc4ccc5cccc6ccc3c4c56)=N1)Oc1ccccc1-2
- emission maximum (in ClCCl): 457 nm

SMILES: CC1=C(c2ccccc2)C2=Cc3c(-c4ccccc4)c(C)c(C)n3[B-](F)(F)[N+]2=C1C
- emission maximum (in CC#N): 549 nm

SMILES: C[Si]1(C)c2ccc(-c3ccc(-c4cccs4)s3)cc2C=Cc2cc(-c3ccc(-c4cccs4)s3)ccc21
- emission maximum (in ClCCl): 424 nm

SMILES: CC[n+]1c(-c2ccccc2)c2cc(-n3cccc3)ccc2c2ccc(N)cc21
- emission maximum (in O): 603 nm

SMILES: CCN(CC)c1ccc(-c2nc3c(c4c2-c2ccc(C#N)cc2CC4)-c2ccc(C#N)cc2CC3)cc1
- emission maximum (in C1CCOC1): 499 nm
- emission maximum (in CC#N): 525 nm
- emission maximum (in CCCCCC): 455 nm
- emission maximum (in CCOC(C)=O): 494 nm
- emission maximum (in CO): 525 nm
- emission maximum (in CS(C)=O): 541 nm
- emission maximum (in Cc1ccccc1): 474 nm
- emission maximum (in ClCCl): 493 nm

SMILES: C/C=C/c1cc(OC)cc(OC)c1
- emission maximum (in CC#N): 343 nm
- emission maximum (in CCCCCC): 338 nm

SMILES: CC(C)(C)c1ccc2c(c1)c1cc(C(C)(C)C)ccc1n2-c1cc(C(=O)c2ccccc2)cc(-n2c3ccc(C(C)(C)C)cc3c3cc(C(C)(C)C)ccc32)c1
- emission maximum (in Cc1ccccc1): 466.36 nm
- emission maximum (in c1cc(-c2cccc(-n3c4ccccc4c4ccccc43)c2)cc(-n2c3ccccc3c3ccccc32)c1): 470.81 nm

SMILES: CCN1C(=CC2=C([O-])C(=Cc3[se]c4ccccc4[n+]3CC)C2=O)[Se]c2ccccc21
- emission maximum (in CO): 688 nm
- emission maximum (in ClC(Cl)Cl): 714 nm

SMILES: COc1ccc(/C=C/c2nc(N3CCOCC3)c3c([n+]2[O-])CCCC3)cc1
- emission maximum (in ClCCl): 533 nm

SMILES: CN(c1ccccc1)c1ccc(-c2ccc(-c3ccc(N(C)c4ccccc4)cc3)c3nc(-c4ccccc4)c(-c4ccccc4)nc23)cc1
- emission maximum (in C1CCOC1): 638 nm
- emission maximum (in CC#N): 659 nm
- emission maximum (in CCCCCC): 598 nm
- emission maximum (in CN(C)C=O): 661 nm
- emission maximum (in Cc1ccccc1): 627 nm
- emission maximum (in ClC(Cl)Cl): 640 nm

SMILES: c1ccc(-c2nc(-c3cccs3)[nH]c2-c2ccccc2)cc1
- emission maximum (in CC#N): 391 nm

SMILES: CN1c2cc3nc4cc(Cl)c(Cl)cc4nc3cc2N(C)C1(C)C
- emission maximum (in CCO): 497 nm

SMILES: O=C1c2ccc(-c3ccc(N(c4ccc(-c5ccccc5)cc4)c4ccc(-c5ccccc5)cc4)cc3)cc2C(=O)c2ccc(-c3ccc(N(c4ccc(-c5ccccc5)cc4)c4ccc(-c5ccccc5)cc4)cc3)cc21
- emission maximum (in Cc1ccccc1): 608 nm
- emission maximum (in c1ccc2c(c1)c1ccccc1n2-c1ccc(-c2ccc(-n3c4ccccc4c4ccccc43)cc2)cc1): 601 nm

SMILES: F[B-]1(F)OC(c2ccccc2)=Cc2ccc3ccccc3[n+]21
- emission maximum (in ClC(Cl)Cl): 438 nm
- emission maximum (in ClCCl): 441 nm

SMILES: O=C1c2ccc3c4c(Oc5ccccc5)cc5c6c(ccc(c7c(Oc8ccccc8)cc(c2c37)C(=O)N1c1ccc(O)cc1)c64)C(=O)N(c1ccc(O)cc1)C5=O
- emission maximum (in C1CCOC1): 564 nm
- emission maximum (in CN1CCCC1=O): 592 nm
- emission maximum (in CN(C)C=O): 576 nm

SMILES: C[Si](C)(C)C#Cc1c2c(=O)c3ccccc3c2c(C#C[Si](C)(C)C)c2c(=O)c3ccccc3c12
- emission maximum (in ClC(Cl)Cl): 571 nm

SMILES: C(S/C=C/c1ccc(/C=C/SC=C2CCCC2)cc1)=C1CCCC1
- emission maximum (in ClCCl): 424 nm

SMILES: N#Cc1cnc(-c2c3ccccc3c(-c3ccccc3)c3ccccc23)nc1
- emission maximum (in CCO): 520 nm
- emission maximum (in ClCCl): 504 nm

SMILES: CC1=C(C#Cc2ccc(N(c3ccccc3)c3ccccc3)cc2)C(C)=[N+]2C1=C(c1ccccc1)c1c(C)c(C#Cc3ccc(N(c4ccccc4)c4ccccc4)cc3)c(C)n1[B-]2(F)F
- emission maximum (in C1CCOC1): 659 nm

SMILES: CC(C)(C)c1ccc2c(c1)c1cc(C(C)(C)C)ccc1n2-c1ccc2oc3nc4oc5ccc(C(F)(F)F)cc5c4cc3c2c1
- emission maximum (in C1CCCCC1): 396 nm
- emission maximum (in C1CCOC1): 455 nm
- emission maximum (in CC#N): 513 nm
- emission maximum (in CS(C)=O): 517 nm
- emission maximum (in Cc1ccccc1): 422 nm
- emission maximum (in ClC(Cl)Cl): 364 nm

SMILES: CCOC(=O)c1[nH]c(C)c(/C=C/C2=[N+]3C(=C(c4cc(OC)cc(OC)c4)c4c(C)c(I)c(/C=C/c5c(C)[nH]c(C(=O)OCC)c5C)n4[B-]3(F)F)C(C)=C2I)c1C
- emission maximum (in C1CCOC1): 713 nm
- emission maximum (in CS(C)=O): 731 nm
- emission maximum (in ClCCl): 710 nm

SMILES: F[B-]1(F)OC(c2ccc3c(c2)Cc2ccccc2-3)=CC(c2ccccc2)=[O+]1
- emission maximum (in CC#N): 491 nm

SMILES: Cc1ccc2c(c1)c1cc(C)ccc1n2-c1cccc(-n2c3ccc(C)cc3c3cc(C)ccc32)c1C#N
- emission maximum (in Cc1ccccc1): 417 nm
- emission maximum (in O=P(c1ccccc1)(c1ccccc1)c1ccccc1Oc1ccccc1P(=O)(c1ccccc1)c1ccccc1): 432 nm

SMILES: CC(C)[Si](C#Cc1c2cc3ccccc3cc2c(C#C[Si](C(C)C)(C(C)C)C(C)C)c2nc3c(ccc4ccccc43)nc12)(C(C)C)C(C)C
- emission maximum (in CCCCCC): 661 nm

SMILES: CCCCC#Cc1cccc2cc(CCCC)c3cc(-c4cc[b-]5c(c4)c(CCCC)cc4cccc(C#CCCCC)[n+]54)cc[b-]3[n+]12
- emission maximum (in C1CCCCC1): 598 nm

SMILES: c1ccc(N(c2ccccc2)c2ccc(-c3ccc4c(c3)C3(c5cc(-c6ccc(N(c7ccccc7)c7ccccc7)cc6)ccc5O4)c4ccccc4-c4ccccc43)cc2)cc1
- emission maximum (in ClCCl): 419 nm
- emission maximum [1]: 407 nm

SMILES: CCNc1cc2oc(=O)c3c(=O)oc4ccccc4c3c2cc1C
- emission maximum (in CS(C)=O): 552 nm
- emission maximum (in ClCCl): 509 nm

SMILES: O=C1c2ccc3c4ccc5c6c(ccc(c7ccc(c2c37)C(=O)N1c1ccncc1)c64)C(=O)N(c1ccncc1)C5=O
- emission maximum (in C1CCOC1): 570 nm
- emission maximum (in C1COCCO1): 572 nm
- emission maximum (in CC(C)=O): 570 nm
- emission maximum (in CC(C)O): 572 nm
- emission maximum (in CCCCO): 570 nm
- emission maximum (in CCO): 569 nm
- emission maximum (in CCOC(C)=O): 567 nm
- emission maximum (in CN(C)C=O): 574 nm
- emission maximum (in CO): 569 nm
- emission maximum (in CS(C)=O): 580 nm
- emission maximum (in ClC(Cl)(Cl)Cl): 573 nm
- emission maximum (in ClC(Cl)Cl): 576 nm

SMILES: Cc1ccc2c(c1)nc1c(=O)n(C)c(=O)nc-1n2C
- emission maximum (in CC#N): 532 nm

SMILES: CCc1ccc2ccc(-c3ccccc3)nn12
- emission maximum (in CCCCCC): 495 nm

SMILES: C=Cc1ccc(OC)cc1
- emission maximum (in C1CCCCC1): 322 nm
- emission maximum (in CC#N): 323 nm

SMILES: CC(C)(C)c1ccc(N(c2ccc(C(C)(C)C)cc2)c2cc(N(c3ccc(C(C)(C)C)cc3)c3ccc(C(C)(C)C)cc3)c3ccc4cc(C(C)(C)C)cc5ccc2c3c54)cc1
- emission maximum (in ClCCl): 491 nm

SMILES: CCN1C(=CC=Cc2n(CC)c3cc(Cl)c(Cl)cc3[n+]2CC)N(CC)c2cc(Cl)c(Cl)cc21
- emission maximum (in CC#N): 529 nm
- emission maximum (in CCCCCCO): 535 nm
- emission maximum (in CCCCO): 534 nm
- emission maximum (in CCCO): 532 nm
- emission maximum (in CCO): 530 nm
- emission maximum (in CO): 528 nm
- emission maximum (in CS(C)=O): 536 nm
- emission maximum (in OCC(O)CO): 535 nm
- emission maximum (in OCCO): 532 nm

SMILES: CC1(C)C(/C=C/C2=C(c3ccc(C(=O)O)cc3)C(=C/C=C3/N(CCCCS(=O)(=O)[O-])c4ccc5ccccc5c4C3(C)C)/CCC2)=[N+](CCCCS(=O)(=O)[O-])c2ccc3ccccc3c21
- emission maximum (in CO): 811 nm

SMILES: COc1cc(/C=C/c2ccccc2)cc(OC)c1
- emission maximum (in C1CCCCC1): 364 nm
- emission maximum (in CC#N): 390 nm
- emission maximum (in CC(C)O): 382 nm
- emission maximum (in CCCCOCCCC): 372 nm
- emission maximum (in CCOC(C)=O): 382 nm
- emission maximum (in CCOCC): 374 nm

SMILES: CC(C)(C)NC(=O)c1cccc2ccc3c4ccccc4c4ccccc4c3c12
- emission maximum (in ClCCl): 403 nm

SMILES: COC(=O)C[C@H](Cc1c[nH]c2ccccc12)NC(=O)[C@H](CC(=O)N[C@@H](CC1=CCc2ccccc21)C(=O)OC)NC(=O)[C@H](Cc1c[nH]c2ccccc12)NC(=O)OC(C)(C)C
- emission maximum (in CC#N): 334 nm
- emission maximum (in CCOC(C)=O): 330 nm
- emission maximum (in CO): 338 nm

SMILES: O=C(O)c1ccc2ccc3cccc4ccc1c2c34
- emission maximum (in C1CCOC1): 387 nm
- emission maximum (in CC#N): 389 nm
- emission maximum (in CCCCCC): 387 nm
- emission maximum (in CCO): 380 nm
- emission maximum (in CN(C)C=O): 388 nm
- emission maximum (in CO): 380 nm
- emission maximum (in Cc1ccccc1): 392 nm
- emission maximum (in ClCCl): 394 nm

SMILES: CCn1c2ccccc2c2cc(C#Cc3cc(C#Cc4ccc5c(c4)c4ccccc4n5CC)nc(N4CCCCC4)n3)ccc21
- emission maximum (in C1CCOC1): 445 nm
- emission maximum (in CCOC(C)=O): 446 nm
- emission maximum (in CN(C)C=O): 469 nm
- emission maximum (in Cc1ccccc1): 438 nm
- emission maximum (in ClCCl): 450 nm

SMILES: O=S(=O)(c1cccc(N2c3ccccc3Oc3ccccc32)c1)c1cccc(N2c3ccccc3Oc3ccccc32)c1
- emission maximum (in C1CCOC1): 596 nm
- emission maximum (in CCCCC(CC)n1c2ccc(-n3c4ccccc4c4ccccc43)cc2c2cc(-n3c4ccccc4c4ccccc43)ccc21): 542.52 nm
- emission maximum (in Cc1ccccc1): 547 nm
- emission maximum (in ClC(Cl)Cl): 572 nm
- emission maximum [1]: 546.26 nm

SMILES: CCCCCCOc1ccc(-c2cnc(-c3nnc(-c4ccc(OCCCCCC)cc4)o3)o2)cc1
- emission maximum (in C1CCCCC1): 370 nm
- emission maximum (in C1CCOC1): 386 nm
- emission maximum (in CC#N): 400 nm
- emission maximum (in CCO): 411 nm
- emission maximum (in CO): 419 nm
- emission maximum (in ClC(Cl)Cl): 390 nm
